Changes are numbered by the printed parent chain.
How the values were obtained:
[1] = molecular target: T1, monkey chymase (Macaca fascicularis, UniProt P56435); experiment: Monkey chymase inhibitory activity (in vitro, angiotensin I substrate); type: biochemical; details: chymase purified from monkey cheek pouch and stomach; substrate angiotensin I; 37° C.; read-out: Monkey Chymase Inhibition (IC50:nM)
T1 construct: chymase was extracted from homogenized monkey cheek pouch and stomach; from tissue; host or cells: monkey cheek pouch and stomach
T1 sequence (P56435 22-247): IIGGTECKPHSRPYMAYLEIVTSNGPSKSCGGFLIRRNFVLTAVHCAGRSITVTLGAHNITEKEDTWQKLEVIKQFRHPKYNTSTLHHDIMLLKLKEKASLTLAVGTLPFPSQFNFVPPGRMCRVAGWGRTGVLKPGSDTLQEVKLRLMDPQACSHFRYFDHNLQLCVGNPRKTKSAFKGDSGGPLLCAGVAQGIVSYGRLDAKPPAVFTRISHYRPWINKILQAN
Description: (§1) The inhibitory activities of the compounds on monkey chymase and human chymase were tested in vitro. The test compounds are as shown by Compound Nos. in Tables 13 and 14.
Preparation of Monkey Chymase
Chymase was purified from monkey cheek pouch and stomach in the following manner.
Briefly, chymase was extracted from homogenized monkey cheek pouch and stomach with 0.01 mol/1000 ml sodium phosphate buffer, pH 7.4, containing 2 mol/1000 ml KCl and 0.1% Nonidet P-40 (Amresco Inc.). The solution containing chymase was applied to a heparin actigel column, and the chymase-rich fractions were collected.
(§2) Measurement of Chymase Inhibitory Activity (In Vitro Assay)
(§3) Briefly, the purified monkey or human chymase was diluted to an appropriate concentration with 0.01 mol/1000 ml sodium phosphate buffer, pH 7.4, containing 2 mol/1000 ml KCl and 0.1% Nonidet P-40 and used as enzyme solution. Angiotensin I (Peptide Institute Inc.) was diluted with water to 5 mg/ml and used as substrate solution. Test compounds were serially diluted with 10% DMSO. […] After pre-incubation of the mixture at 37° C., 20 μl of the substrate solution was added to the enzyme-test compound mixture and the new mixture was incubated at 37° C. Fifty μl of 30% trichloroacetic acid solution was finally added to stop the enzymatic reaction.
(§4) The amount of L-His-L-Leu was measured as angiotensin II produced by the enzymatic reaction. Briefly, 10 μl of the reaction mixture and 10 μl of 1% orthophthalaldehyde solution dissolved in methanol were mixed with 100 μl of 2 mol/1000 ml NaOH and kept at room temperature. The reaction was then stopped by adding 10 μl of 6 mol/1000 ml HCl.

[2] = molecular target: T2, human chymase (Homo sapiens, UniProt P23946); experiment: Human chymase inhibitory activity (in vitro, angiotensin I substrate); type: biochemical; details: recombinant human chymase (COS7 cells); substrate angiotensin I; 37° C.; read-out: Human Chymase Inhibition (IC50:nM)
T2 construct: made in house; host or cells: COS7 cells (transient transfection)
T2 sequence (P23946 22-247): T1 sequence (P56435 22-247) with S29F, V44A, K63E, Y159D, L201S, K221Q
Description: as §1
Preparation of Human Chymase
Human chymase was produced in mammalian cells using a recombinant DNA technique.
Construction of a human prochymase expression plasmid was performed in the following manner. Briefly, single stranded cDNA was synthesized from human heart mRNA (Clontech Laboratories, Inc.). Polymerase chain reaction amplification was carried out using the cDNA as a template and appropriate pairs of primers. The primer sequences were determined based on the human preprochymase. The amplified product was cloned into the plasmid pUC18, and then recloned into the plasmid pBluescript II KS(+) (Stratagene). Finally, the DNA fragment carrying the entire protein-coding sequences of the human preprochymase was inserted to a transient expression vector by the usual method to yield the human prochymase expression plasmid.
Transfection of COS7 cells with the human prochymase expression plasmid was carried out using the FuGene™ 6 transfection reagent (Boehringer Mannheim). About 7 hours after exposure to DNA, the culture medium was changed to a serum-free one. The culture supernatant was collected after 2 days culture.
Human prochymase was purified from the culture supernatant using a heparin actigel column as described above in the preparation of monkey chymase.
In order to produce active chymase, the human prochymase was incubated with dipeptidylpeptidase I (Sigma). The resultant active human chymase was purified using a heparin actigel column as described above. The active human chymase was eluted with 0.01 mol/1000 ml sodium phosphate buffer pH 7.4 containing 2 mol/1000 ml NaCl.
as §2
as §3, with “The chymase inhibitory activities of compounds I-A of this invention were measured according to the following method. Briefly,” for “Briefly,”
as §4, with “HCl. Finally, the fluorescence induced by the reaction was measured using in a photometer with an excitation wavelength of 355 nm and an emission wavelength of 460 nm. Chymase inhibitory activities of test compounds were expressed as 50% inhibitory concentration (IC50).” for “HCl.”

[3] = in vivo; details: male, ddy, mouse, po
[4] = test system: chymase-induced dye leakage; experiment: Skin permeability test: inhibition of vascular permeability (Evans Blue dye leakage); type: in vivo; details: male Hartley guinea pigs, 100 mg/kg orally 1 hour before intradermal injection of human chymase
Description: Skin permeability test was carried out according to the following method. Briefly, male Hartley guinea pigs (350-460 g, Shizuoka Laboratory Animal Center, Japan) were anesthetized by intraperitoneal injection of Nembutal™ (30 mg/kg; Dainippon Pharmaceutical Co., Ltd., Japan). After shaving the guinea pigs dorsa, 50 μl of purified human chymase (Elastin Products Inc., USA) diluted with phosphate buffered saline (PBS) to a concentration of 1.8 units /55 μg protein/ml (1 unit of chymase represents the amount of chymase required to hydrolyze 1.0 μmole of N-benzoyl-L-tyrosine-ethyl ester (BTEE) per minute at 25° C.; pH 7.8) were injected intradermally into three dorsal sites of each animal. […] The amounts of dye leakage into the dorsal skins were measured according to the following method.
Briefly, the area around each injection site (16 mm diameter) was punched out from the inside of the skin, and the leaked dye was extracted by incubation of the punched skin in N,N-dimethylformamide (DMF, 3 ml) at 55° C. overnight. The absorbance of the dye extract was then measured using a spectrophotometer at a wavelength of 620 nm. […] The amount of chymase-induced dye leakage (ACDL) and the amount of solvent-induced dye leakage (ASDL) in each animal were calculated as the average of dye leakage from the three treated dorsal sites in each case. […]

[5] = Toxicity study, 2 weeks oral; type: in vivo; details: five-week-old male ddy mice; orally once a day for 2 weeks; 30 and 300 mg/kg/day
Description: Five-week-old male ddy mice were administered orally once a day for 2 weeks with the compound I-A-1 at dose levels of 30 and 300 mg/kg/day.

| IC50 [1] [nM] | IC50 [2] [nM] | concentration at 1 h [3] [ng/mL] | Compound | Dye leakage inhibition rate (%) [4] [%] | treatment-related finding (body weight, diet consumption, heart, liver, kidney weight, necropsy finding, hematology, blood chemistry) [5] |
| --- | --- | --- | --- | --- | --- |
| 3.8 | 55 | 480 | Cc1noc(C)c1C(=O)N[C@H](C(=O)N1CCC[C@H]1C(=O)N[C@@H](Cc1csc2ccccc12)C(=O)C(F)(F)F)C(C)C [I-A-1, N-[(1S)-2-((2S)-2-{N-[(1S)-1-(benzo[b]thiophen-3-yl-methyl)-3,3,3-trifluoro-2-oxopropyl]carbamoyl}pyrrolidinyl)-1-(methylethyl)-2-oxoethyl](3,5-dimethylisoxazol-4-yl)carboxamide] | 34 | no treatment-related finding |
| 5.1 | 36 | 570 | Cc1nnsc1C(=O)N[C@H](C(=O)N1CCC[C@H]1C(=O)N[C@@H](Cc1csc2ccccc12)C(=O)C(F)(F)F)C(C)C [I-A-20, N-[(1S)-2-((2S)-2-{N-[(1S)-1-(benzo[b]thiophen-3-ylmethyl)-3,3,3-trifluoro-2-oxopropyl]carbamoyl}pyrrolidinyl)-1-(methylethyl)-2-oxoethyl](4-methyl(1,2,3-thiadiazol-5-yl))carboxamide] | 59 |  |
| 16 | 83 | 630 | Cc1noc(C)c1C(=O)N[C@@H](C)C(=O)N1CCC[C@H]1C(=O)N[C@@H](Cc1csc2ccccc12)C(=O)C(F)(F)F [I-A-5, N-[(1S)-2-((2S)-2-{N-[(1S)-1-(benzo[b]thiophen-3-ylmethyl)-3,3,3-trifluoro-2-oxopropyl]carbamoyl}pyrrolidinyl)-1-methyl-2-oxoethyl](3,5-dimethylisoxazol-4-yl)carboxamide] |  |  |

From patent US6852744B2, “Pyrrolidine derivatives and their use as chymase inhibitor” (Dainippon Pharmaceutical Co., Ltd., priority 2000, dated 2005)
